# Measurements as given in patent US10231946B2, “Methods of treating ischemic organ damage and other disorders” (Zafgen, Inc., priority 2013, dated 2019).
# Columns and labels:
# Format in all cases: in vivo, human
# sRAGE = sRAGE study in obese patients treated twice weekly for 81 days; details: 0.6, 1.2 or 2.4 mg twice weekly for 81 days, FIG. 1
# Experimental: (§1) Obese patients were treated in three cohorts with intravenous administration of a formulation of the compound A. The compound was intravenously administered to each patient of a cohort (except for a placebo cohort) twice weekly for 81 days. Each of patients in the three non-placebo cohorts received either 0.6 mg of compound A (cohort 1); 1.2 mg (cohort 2); or 2.4 mg (cohort 3) doses of the compound at the time of administration. The trial was conducted under the appropriate government and medical supervision.
# adiponectin [1] = assay: Plasma adiponectin after twelve weeks (81 days) of treatment in obese patients; details: doses 0 (placebo), 0.6, 1.2 and 2.4 mg, FIG. 2
# Experimental: as §1
# adiponectin [2] = assay: Plasma adiponectin (total, ALPCO ELISA; high molecular weight form) after 4 weeks of intravenous treatment in obese patients
Structure (SMILES),levels of sRAGE in patients' serum (sRAGE),plasma adiponectin (adiponectin [1]),"total plasma adiponectin (adiponectin [2]; after 4 weeks of intravenous treatment versus placebo, ALPCO ELISA, FIG. 3)","high molecular weight form of adiponectin (adiponectin [2]; after 4 weeks of intravenous treatment with 1.9 mg versus placebo, FIG. 4)"
CO[C@@H]1[C@H](OC(=O)/C=C/c2ccc(OCCN(C)C)cc2)CC[C@]2(CO2)[C@H]1[C@@]1(C)O[C@@H]1CC=C(C)C.O=C(O)C(=O)O [6-O-(4-dimethylaminoethoxy)cinnamoyl fumagillol oxalate],increase,–,–,–
"CO[C@@H]1[C@H](OC(=O)C=Cc2ccc(OCCN(C)C)cc2)CC[C@]2(CO2)[C@H]1[C@@]1(C)O[C@@H]1CC=C(C)C [Compound A, O-(4-dimethylaminoethoxycinnamoyl)fumagillol]",–,dose proportional increases,increases in total plasma adiponectin,increases in the high molecular weight form of adiponectin
